{"source": "EPA's ToxValDB 9.5 (doi:10.2903/j.efsa.2010.1711)", "key": {"Aphidius rhopalosiphi": {"test_system": "Aphidius rhopalosiphi", "assay": "LR50; higher = less toxic", "conditions": "acute; duration: 48 hours; mortality"}, "Typhlodromus pyri": {"test_system": "Typhlodromus pyri", "assay": "LR50; higher = less toxic", "conditions": "acute; duration: 7 days; mortality"}, "Daphnia magna": {"test_system": "Daphnia magna", "conditions": "chronic/long-term; duration: 21 days; reproduction"}, "Tagia sp.": {"test_system": "Tagia sp.", "conditions": "acute; duration: 14 days; mortality"}, "Apis mellifera": {"test_system": "Apis mellifera", "conditions": "acute; duration: 96 hours; oral; unspecified; mortality"}, "Bibionidae": {"test_system": "Bibionidae", "conditions": "chronic/long-term; duration: 28 days; development"}}, "note": "Values joined by “and” are separate entries in the source; they are usually repeats but may differ in a detail not shown here. Equal entries are not always repeated.", "data": [{"compound": "CC(C)([CH2][Sn]([CH2]C(C)(C)c1ccccc1)([CH2]C(C)(C)c1ccccc1)[O][Sn]([CH2]C(C)(C)c1ccccc1)([CH2]C(C)(C)c1ccccc1)[CH2]C(C)(C)c1ccccc1)c1ccccc1", "note": "[Fenbutatin oxide]", "values": [{"measurement": "LR50", "setting": "Aphidius rhopalosiphi", "value": "> 85.9", "unit": "g/ha"}, {"measurement": "LR50", "setting": "Typhlodromus pyri", "value": 468, "unit": "g/ha"}, {"measurement": "NOEC", "setting": "Daphnia magna", "value": 0.004, "unit": "mg/L"}, {"measurement": "LC50", "setting": "Tagia sp.", "value": "> 1000", "unit": "mg/kg"}, {"measurement": "NOAEC", "setting": "Rattus norvegicus; acute, inhalation, mortality", "value": 5.13, "unit": "mg/kg-day"}, {"measurement": "LD50", "setting": "Rattus norvegicus; acute, oral, F, mortality", "value": "> 3000", "unit": "mg/kg-day"}, {"measurement": "NOAEL", "setting": "Rattus norvegicus; chronic, duration: 2 years, clinical signs", "value": 5, "unit": "mg/kg-day"}, {"measurement": "NOAEL", "setting": "Rattus norvegicus; reproduction developmental, body weight", "value": "4.5 mg/kg-day and 10 mg/kg-day"}, {"measurement": "NOEC", "setting": "Anas platyrhynchos; reproductive", "value": 16.8, "unit": "mg/kg-day"}, {"measurement": "LC50", "setting": "Anas platyrhynchos; short-term, oral, feed, mortality", "value": "> 968", "unit": "mg/kg-day"}, {"measurement": "LD50", "setting": "Apis mellifera", "value": "> 200", "unit": "µg/piece"}, {"measurement": "NOEC", "setting": "Bibionidae", "value": "> 1000", "unit": "mg/kg"}, {"measurement": "LC50", "setting": "Colinus virginianus; acute, oral, diet, mortality", "value": "> 1610", "unit": "mg/kg-day"}, {"measurement": "LD50", "setting": "Colinus virginianus; acute, oral, mortality", "value": "> 2510", "unit": "mg/kg-day"}, {"measurement": "NOEC", "setting": "Colinus virginianus; reproduction developmental", "value": 14.4, "unit": "mg/kg-day"}, {"measurement": "LC50", "setting": "Oncorhynchus mykiss; acute, duration: 96 hours, mortality", "value": 1.14, "unit": "ng/mL"}, {"measurement": "NOEC", "setting": "Oncorhynchus mykiss; chronic/long-term, duration: 62 days, growth", "value": 0.0002, "unit": "mg/L"}]}]}
